Results from the supplement of paper PMC10307832.

How the values were obtained:
Assay in all cases: relative viability (nuclei count vs DMSO), 5 days (fraction); higher = more cells survive
[1] = compound: CN(C)CC1=CC(=CC=C1)N=C(C2=CC=CC=C2)C3=C(NC4=C3C=CC(=C4)C(=O)N(C)C)O + CC(=O)Nc1cccc(-n2c(=O)n(C3CC3)c(=O)c3c(Nc4ccc(I)cc4F)n(C)c(=O)c(C)c32)c1 [Trametinib] (partner 0.02 µM)
Procedure, shortened: (§1)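 One day after seeding in 1536-well plates, lung cancer cell lines were dosed by pin tool. Dosing was either single-drug or a fixed anchor-drug dose plus five library-drug doses (not always all listed) in √10 steps. After 5 days, nuclei were stained in one fix-and-stain step and counted on 4× images, and relative viability is the nuclei count of treated wells over that of vehicle wells, given as the median of duplicate plates.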

[2] = compound: CN(C)CC1=CC(=CC=C1)N=C(C2=CC=CC=C2)C3=C(NC4=C3C=CC(=C4)C(=O)N(C)C)O + O=C(c1cc(Cc2n[nH]c(=O)c3ccccc23)ccc1F)N1CCN(C(=O)C2CC2)CC1 [Olaparib] (partner 8 µM)
Procedure, shortened: as §1

[3] = compound: CN(C)CC1=CC(=CC=C1)N=C(C2=CC=CC=C2)C3=C(NC4=C3C=CC(=C4)C(=O)N(C)C)O + CS(=O)(=O)CCNCc1ccc(-c2ccc3ncnc(Nc4ccc(OCc5cccc(F)c5)c(Cl)c4)c3c2)o1 [Lapatinib] (partner 2 µM)
Procedure, shortened: as §1

[4] = compound: CN(C)CC1=CC(=CC=C1)N=C(C2=CC=CC=C2)C3=C(NC4=C3C=CC(=C4)C(=O)N(C)C)O + N=C(N)NC(=N)NCCc1ccccc1 [Phenformin] (partner 250 µM)
Procedure, shortened: as §1

Cell Line	relative viability ([1]; first compound 0.08 µM)	relative viability ([1]; first compound 0.253 µM)	relative viability ([1]; first compound 2.53 µM)	relative viability ([1]; first compound 8 µM)	relative viability ([2]; first compound 0.08 µM)	relative viability ([2]; first compound 0.253 µM)	relative viability ([2]; first compound 2.53 µM)	relative viability ([2]; first compound 8 µM)	relative viability ([1]; first compound 0.8 µM)	relative viability ([3]; first compound 0.08 µM)	relative viability ([3]; first compound 0.253 µM)	relative viability ([3]; first compound 0.8 µM)	relative viability ([3]; first compound 2.53 µM)	relative viability ([3]; first compound 8 µM)	relative viability ([2]; first compound 0.8 µM)	relative viability ([4]; first compound 0.08 µM)	relative viability ([4]; first compound 0.253 µM)	relative viability ([4]; first compound 0.8 µM)	relative viability ([4]; first compound 2.53 µM)	relative viability ([4]; first compound 8 µM)
NCI-H1648	0.482	0.368	0.534	0.554	0.867	0.72	0.709	1.28	–	–	–	–	–	–	–	–	–	–	–	–
NCI-H2228	0.625	0.417	0.457	0.421	0.781	0.542	0.689	0.557	0.376	1.06	1.13	1.19	0.704	0.846	0.623	0.403	0.308	0.312	0.254	0.357
HCC-44	1.04	1.04	1.04	1.12	0.975	0.995	0.904	1.04	1.08	0.953	1.03	0.986	0.937	1.03	0.967	0.179	0.4	0.185	0.192	0.176
EMC-BAC-2	0.942	0.965	0.881	0.969	0.507	0.526	0.449	0.507	0.886	0.927	0.914	0.953	0.898	0.878	0.543	0.496	0.506	0.504	0.478	0.55
NCI-H522	0.709	0.84	0.746	0.667	0.573	0.663	0.713	0.622	0.735	–	–	–	–	–	0.545	0.688	0.646	0.66	0.621	0.655
NCI-H1915	0.298	0.278	0.289	0.265	0.257	0.271	0.249	0.251	0.32	0.957	0.955	1.05	0.971	0.956	0.249	0.368	0.35	0.383	0.361	0.352
NCI-H661	0.565	0.551	0.591	0.592	0.739	0.697	0.649	0.706	0.54	0.502	0.433	0.559	0.472	0.291	0.74	0.274	0.284	0.244	0.293	0.262
